From US20230331652A1, “TRANS-CYCLOOCTENES WITH HIGH REACTIVITY AND FAVORABLE PHYSIOCHEMICAL PROPERTIES” (University of Delaware, priority 2020, published 2023)

What was measured:
[1] = tested on: HeLa cells; experiment: TAMRA-TCO comparative washout assay; format: cell-based; settings: 5 μM, 30 min incubation
Text: While TCO-derivatives offer rapid labeling kinetics, a consideration for labeling by fluorophore-tagged TCOs has been the background fluorescence due to non-covalent cellular binding that can be ameliorated only by extended washout times. More hydrophilic oxo- and dioxo-trans-cyclooctenes with backbone oxygens offer improvements, but are difficult to synthesize and, for dioxo-TCO, display reduced Diels-Alder kinetics. As shown in FIGS. 5A-5C, the fluorescent conjugates TAM RA-TCO, TAMRA-oxo-TCO and TAMRA-a-TCO were prepared and compared their cellular washout times to unconjugated TAMRA. Thus, HeLa cells were incubated for 30 min with TAMRA-dyes, and cells were initially washed three times with DPBS, and then cell media was exchanged after 10, 40 and 120 minutes. After each wash, cells were imaged live by fluorescence microscopy with illumination at 531 nm and fixed-intensity across all samples. Widefield images of the cells after 3 washes are shown in FIG. 5B; images after the earlier and later washings are shown in FIG. 8. Background fluorescence was quantified by dividing total fluorescence by the number of cells in each image (FIG. 5C).
HeLa cells were seeded at 5×10^3 cells per well in a poly-L-lysine (0.1 mg/mL) coated 48-well plate and allowed to grow for 48 hours in Dulbecco's modified eagle medium (DMEM, Life Technologies) supplemented with 5% FBS (Life Technologies), 1 mM L-glutamine, and 1% penicillin/streptomycin (Life Technologies). Cells were then incubated with media containing 5 μM of TAMRA-TCO, TAMRA-oxo-TCO, or TAMRA-a-TCO 12 (1 mM stock solutions in DMSO, diluted twice into media) for 30 mins at 37° C. All wells were washed three times with DPBS before adding fresh media. Cells were imaged after 2 DPBS washes and again after the 3rd DPBS wash, then incubated for additional time intervals: 10 minutes, 40 minutes, and 2 hour. At each time point, the media was removed from the designated wells and replaced with fresh media before imaging. Images were taken with an EVOS M7000 and all images were taken with the same laser power and gain. Fluorescence intensity was calculated for each sample in 3 replicates using ImageJ and the fluorescence data was normalized with the cell count of each image.

[2] = Stopped-flow kinetics of the Diels-Alder reaction with tetrazine 20; format: physicochemical; settings: for Kobs: 95:5 PBS/MeOH, in s-1 (unit assumed)
Method: The kinetics for the reaction of a-TCO derivative 14 toward a 3,6-dipyridyl-s-tetrazinyl succinamic acid derivative 20 were measured by stopped flow kinetics at 25° C. in 95:5 PBS:MeOH (FIG. 4A).
Stopped-flow kinetics measurements were performed on a SX18MV-R stopped-flow spectrophotometer (Applied Photophysics Ltd.) with temperature control (25° C.).
The reaction between 5-ax-hydroxy-5-eq-(2-hydroxyethyl)-trans-cyclooctene 14 and 3,6-dipyridyl-s-tetrazine-mono-succinamic acid 20 was monitored by a SX18MV-R stopped-flow spectrophotometer (Applied Photophysics Ltd.) at 325 nm by measuring the exponential decay of tetrazine under pseudo-first order conditions. Solutions of 14 (0.98, 1.46, 1.95, and 2.63 mM in 9:1 PBS/MeOH) and tetrazine (0.1 mM in PBS) were mixed in the stopped-flow spectrophotometer in equal volumes resulting in final concentrations of 0.49 mM, 0.73 mM, 0.97 mM, and 1.31 mM of 14 and 0.05 mM of tetrazine in 95:5 PBS/MeOH. Three independent samples were prepared for each TCO concentration and measurements were taken in duplicate every 0.1 ms for 0.1 sat 25° C. The observed rates kobs for each run were determined by nonlinear regression analysis of the data points using Prism software (Version 8.00, GraphPad Software Inc). The average kobs values were plotted against the concentrations of 14 to obtain the bimolecular rate constant k2 from the slope of the plot.
The observed rates (kobs) of 5-ax-hydroxy-5-eq-(2-hydroxyethyl)-trans-cyclooctene 14 (10-30 equivalents) and 3,6-dipyridyl-s-tetrazine-mono-succinamic acid 20 were measured using stopped-flow kinetics. The final concentrations of 14 after injection were (A) 0.49 mM, (B) 0.73 mM, (C) 0.97 mM, and (D) 1.31 mM and the concentration of tetrazine was 0.05 mM in 95:5 PBS/MeOH at 25° C. Duplicate measurements were obtained for three independent samples for each concentration of 14.
The reaction between 5-ax-hydroxy-trans-cyclooctene 4a and 3,6-dipyridyl-s-tetrazine-mono-succinamic acid 20 was monitored by a SX18MV-R stopped-flow spectrophotometer (Applied Photophysics Ltd.) at 325 nm by measuring the exponential decay of tetrazine under pseudo-first order conditions. Solutions of 4a (100, 200, 300, and 400 μM in 9:1 PBS/MeOH) and tetrazine (20 μM in PBS) were mixed in the stopped-flow […] 95:5 PBS/MeOH. Three independent samples were prepared for each TCO concentration and measurements were taken in duplicate every 0.1 ms for 0.2 s at 25° C. The observed rates kobs for each run were determined by nonlinear regression analysis of the data points using Prism software (Version 8.00, GraphPad Software Inc). The average kobs values were plotted against the concentrations of 4a to obtain the bimolecular rate constant k2 from the slope of the plot.
The observed rates (kobs) of 5-ax-hydroxy-trans-cyclooctene 4a (5-20 equivalents) and 3,6-dipyridyl-s-tetrazine-mono-succinamic acid 20 were measured using stopped-flow kinetics. […]

[3] = Stability in methanol-d4 (35 mM) by quantitative 1H NMR; format: physicochemical; settings: 35 mM in methanol-d4, after 7 days
Method: (§1) A solution of 14 (4.5 mg, 26 μmol) in methanol-d4 (750 μL) was monitored by quantitative ^1H NMR on a 600 MHz instrument to observe the decomposition of the trans-isomer over time. Methyl tert-butyl ether (3.1 μL, 26 μmol) was used as an internal standard. […] The results were plotted using Prism software (Version 8.00, GraphPad Software Inc). A waterfall plot of the ^1H NMR spectra is provided.
as §1, with “4a (3.3” for “14 (4.5”

[4] = Stability in phosphate buffered D2O, pD=7.4 (33 mM) by quantitative 1H NMR; format: physicochemical
Method: (§2) Phosphate buffered D2O (pD=7.4) was prepared by combining anhydrous sodium dihydrogen phosphate (NaH2PO4, 77.1 mg) and anhydrous disodium hydrogen phosphate (Na2HPO4, 204.4 mg) with 20 mL of D2O to make a 0.1 M solution. The pD was measured on a Fisher Scientific AB15 Plus pH meter and pH values were converted to pD by adding 0.4 units. The pD was adjusted to 7.4 with DCI (35 wt. % in D2O) and NaOD (40 wt. % in D2O) as necessary.
(§3) A solution of 14 (4.3 mg, 25 μmol) in phosphate buffered D2O (750 μL, pD=7.4) was monitored by quantitative ^1H NMR on a 600 MHz instrument to observe the decomposition of the trans-isomer over time. Methyl tert-butyl ether (3.0 μL, 26 μmol) was used as an internal standard. After 1 day, 90% of 14 remained and after 5 days, 39% remained (FIG. 6B). The results were plotted using Prism software (Version 8.00, GraphPad Software Inc). A waterfall plot of the ^1H NMR spectra is provided.
as §3, with “4a (3.2” for “14 (4.3”, “85%” for “90%”, “4a” for “14”, “35%” for “39%”

[5] = Stability with mercaptoethanol (25 mM) in phosphate buffered D2O, pD=7.4; format: physicochemical; settings: 25 mM mercaptoethanol
Method: as §2
TCO 14 (3.1 mg, 18 μmol) in a solution of mercaptoethanol in phosphate buffered D2O (720 μL, 18 μmol, 25 mM, pD=7.4) was monitored by quantitative 1H NMR on a 600 MHz instrument to observe the decomposition of the trans-isomer over time. Methyl tert-butyl ether (2.1 μL, 18 μmol) was used as an internal standard. After 4 hours, 93% of 14 remained and 49% of 14 remained after 20 hours. (FIG. 6C). The results were plotted using Prism software (Version 8.00, GraphPad Software Inc). A waterfall plot of the ^1H NMR spectra is provided.
TCO 4a (2.3 mg, 18 μmol) in a solution of mercaptoethanol in phosphate buffered D2O (720 μL, 18 μmol, 25 mM, pD=7.4) was monitored by quantitative 1H NMR on a 600 MHz instrument to observe the decomposition of the trans-isomer over time. Methyl tert-butyl ether (2.1 μL, 18 μmol) was used as an internal standard. After 4 hours, 89% of 4a and 49% of 4a remained after 20 hours. (FIG. 6C). The results were plotted using Prism software (Version 8.00, GraphPad Software Inc). A waterfall plot of the ^1H NMR spectra is provided.

decomposition of the trans-isomer [3]	TCO remaining ([4]; phosphate buffered D2O pD 7.4, 1 day (24 h), room temperature)	TCO remaining ([4]; phosphate buffered D2O pD 7.4, 5 days)	TCO remaining ([5]; phosphate buffered D2O pD 7.4, 4 hours)	TCO remaining ([5]; phosphate buffered D2O pD 7.4, 20 hours)	SMILES	background fluorescence after 3 washings ([1]; 3 washes with DPBS)	background fluorescence / washout after 2 hours ([1]; media exchanges up to 2 hours)	Kobs ([2]; A (0.49 mM) of 14, 0.05 mM tetrazine, 25° C.)	Kobs ([2]; B (0.73 mM) of 14, 0.05 mM tetrazine, 25° C.)	Kobs ([2]; C (0.97 mM) of 14, 0.05 mM tetrazine, 25° C.)	Kobs ([2]; D (1.31 mM) of 14, 0.05 mM tetrazine, 25° C.)	reactivity relative to oxo-TCO ([2]; comparison of k2 with oxo-TCO)	reactivity toward 20 relative to 4a ([2]; ratio of k2 versus axial isomer 4a)	reactivity toward 20 relative to 4b ([2]; ratio of k2 versus equatorial isomer 4b)	second-order rate constant k2 ([2]; toward tetrazine 20, stopped flow, 25° C., 95:5 PBS:MeOH)
–	–	–	–	–	CN(C)c1ccc2c(-c3ccc(C(=O)NCCCCCNC(=O)OC[C@@H]4CC/C=C/CCO4)cc3C(=O)[O-])c3ccc(=[N+](C)C)cc-3oc2c1 (stereo in doubt) [TAMRA-oxo-TCO, (S,E)-2-(6-(dimethylamino)-3-(dimethyliminio)-3H-xanthen-9-yl)-5-((5-((((3,4,7,8-tetrahydro-2H-oxocin-2-yl)methoxy)carbonyl)amino)pentyl)carbamoyl)benzoate, reference compound]	improved	residual fluorescence	–	–	–	–	–	–	–	–
no observable decomposition	90%	39%	93%	49%	OCC[C@]1(O)CC/C=C/CCC1 [Compound 14, 5-ax-Hydroxy-5-eq-(2-hydroxyethyl)-trans-cyclooctene]	–	–	76.13	121.4	162.4	200.2	more reactive than oxo-TCO	more than twice as reactive	~7 times	150,000±8000 M^−1s^−1
